Assay results from the NIST ThermoML archive (doi:10.1016/j.fluid.2018.07.028).
± gives the expanded uncertainty stated by the source.

Assay: activity coefficient (dimensionless); of the first substance listed, at infinite dilution; xn = mol fraction of the nth substance listed
Conditions: 101.33 kPa, Liquid, Chromatography, x1 = 0

Row | Structure (SMILES) | activity coefficient (358.15 K) | activity coefficient (368.15 K) | activity coefficient (378.15 K) | activity coefficient (388.15 K) | activity coefficient (398.15 K) | activity coefficient (408.15 K)
1 | Cc1ccccc1C [1,2-dimethylbenzene] + CCCC[P+](CCCC)(CCCC)CCCC.O=S(=O)([N-]S(=O)(=O)C(F)(F)F)C(F)(F)F | 1.39 ± 0.09 | 1.43 ± 0.09 | 1.48 ± 0.1 | 1.52 ± 0.1 | 1.57 ± 0.1 | 1.61 ± 0.11
2 | Cc1cccc(C)c1 [1,3-dimethylbenzene] + CCCC[P+](CCCC)(CCCC)CCCC.O=S(=O)([N-]S(=O)(=O)C(F)(F)F)C(F)(F)F | 1.53 ± 0.1 | 1.58 ± 0.1 | 1.63 ± 0.11 | 1.68 ± 0.11 | 1.72 ± 0.12 | 1.77 ± 0.12
3 | Cc1ccc(C)cc1 [1,4-dimethylbenzene] + CCCC[P+](CCCC)(CCCC)CCCC.O=S(=O)([N-]S(=O)(=O)C(F)(F)F)C(F)(F)F | 1.55 ± 0.1 | 1.6 ± 0.11 | 1.64 ± 0.11 | 1.69 ± 0.11 | 1.74 ± 0.12 | 1.79 ± 0.12
4 | C1COCCO1 [1,4-dioxane] + CCCC[P+](CCCC)(CCCC)CCCC.O=S(=O)([N-]S(=O)(=O)C(F)(F)F)C(F)(F)F | 0.795 ± 0.052 | 0.825 ± 0.053 | 0.853 ± 0.055 | 0.884 ± 0.056 | 0.911 ± 0.058 | 0.941 ± 0.059
5 | C=CCCCCCCCC [1-decene] + CCCC[P+](CCCC)(CCCC)CCCC.O=S(=O)([N-]S(=O)(=O)C(F)(F)F)C(F)(F)F | 7.54 ± 0.51 | 7.48 ± 0.51 | 7.41 ± 0.51 | 7.36 ± 0.5 | 7.3 ± 0.5 | 7.25 ± 0.49
6 | C=CCCCCC [1-heptene] + CCCC[P+](CCCC)(CCCC)CCCC.O=S(=O)([N-]S(=O)(=O)C(F)(F)F)C(F)(F)F | 3.96 ± 0.27 | 4 ± 0.27 | 4.05 ± 0.28 | 4.09 ± 0.28 | 4.13 ± 0.28 | 4.17 ± 0.28
7 | C#CCCCCC [1-heptyne] + CCCC[P+](CCCC)(CCCC)CCCC.O=S(=O)([N-]S(=O)(=O)C(F)(F)F)C(F)(F)F | 2.28 ± 0.16 | 2.35 ± 0.16 | 2.42 ± 0.16 | 2.48 ± 0.17 | 2.55 ± 0.17 | 2.62 ± 0.18
8 | C#CCCCC [1-hexyne] + CCCC[P+](CCCC)(CCCC)CCCC.O=S(=O)([N-]S(=O)(=O)C(F)(F)F)C(F)(F)F | 1.88 ± 0.13 | 1.94 ± 0.13 | 2 ± 0.14 | 2.06 ± 0.14 | 2.11 ± 0.14 | 2.17 ± 0.15
9 | CCC[N+](=O)[O-] [1-nitropropane] + CCCC[P+](CCCC)(CCCC)CCCC.O=S(=O)([N-]S(=O)(=O)C(F)(F)F)C(F)(F)F | 0.693 ± 0.047 | 0.708 ± 0.047 | 0.724 ± 0.048 | 0.739 ± 0.049 | 0.754 ± 0.05 | 0.768 ± 0.05
10 | C#CCCCCCC [1-octyne] + CCCC[P+](CCCC)(CCCC)CCCC.O=S(=O)([N-]S(=O)(=O)C(F)(F)F)C(F)(F)F | 2.79 ± 0.19 | 2.87 ± 0.2 | 2.93 ± 0.2 | 3 ± 0.2 | 3.07 ± 0.21 | 3.13 ± 0.21
11 | C=CCCC [1-pentene] + CCCC[P+](CCCC)(CCCC)CCCC.O=S(=O)([N-]S(=O)(=O)C(F)(F)F)C(F)(F)F | 2.61 ± 0.18 | 2.66 ± 0.18 | 2.7 ± 0.18 | 2.74 ± 0.19 | 2.78 ± 0.19 | 2.82 ± 0.19
12 | C#CCCC [1-pentyne] + CCCC[P+](CCCC)(CCCC)CCCC.O=S(=O)([N-]S(=O)(=O)C(F)(F)F)C(F)(F)F | 1.52 ± 0.1 | 1.58 ± 0.1 | 1.64 ± 0.11 | 1.7 ± 0.11 | 1.76 ± 0.12 | 1.82 ± 0.12
13 | CC(C)CC(C)(C)C [2,2,4-trimethylpentane] + CCCC[P+](CCCC)(CCCC)CCCC.O=S(=O)([N-]S(=O)(=O)C(F)(F)F)C(F)(F)F | 5.43 ± 0.37 | 5.42 ± 0.37 | 5.41 ± 0.37 | 5.4 ± 0.37 | 5.39 ± 0.37 | 5.39 ± 0.37
14 | CCC(C)(C)C [2,2-dimethylbutane] + CCCC[P+](CCCC)(CCCC)CCCC.O=S(=O)([N-]S(=O)(=O)C(F)(F)F)C(F)(F)F | 3.93 ± 0.27 | 3.98 ± 0.27 | 4.01 ± 0.27 | 4.05 ± 0.28 | 4.08 ± 0.28 | 4.12 ± 0.28
15 | CCOC(C)(C)C [2-ethoxy-2-methylpropane] + CCCC[P+](CCCC)(CCCC)CCCC.O=S(=O)([N-]S(=O)(=O)C(F)(F)F)C(F)(F)F | 2.72 ± 0.19 | 2.78 ± 0.19 | 2.84 ± 0.19 | 2.91 ± 0.2 | 2.96 ± 0.2 | 3.02 ± 0.21
